Measured values: patent US8957114B2, “Formulations, salts and polymorphs of transnorsertraline and uses thereof” (Sunovion Pharmaceuticals Inc., priority 2009, dated 2015)
Like-named read-outs stand apart in the source and are kept apart here. Marks after values point to notes of the source that are not given here.

Experiments:
[1] = Stability of isolated degradants of formula (III) fractions; assay type: physicochemical
Protocol: Degradation products of active were isolated using semi-preparative HPLC (Zorbax SB-SN, 5 um, 9.2×250 mm; 20% ACN/H2O with 0.1% formic acid as mobile phase, 4 mL/min) with the aforementioned open dish degradation sample. Fractions containing these impurities were neutralized with 0.1 M NH4OAc before drying under vacuum to prevent possible decomposition.
Impurities 3 and 4 share the same molecular weight of 323 with almost identical MS fragmentation pattern. After the isolation and drying process, it was noticed that impurities 3 and 4 were converted to impurities 1 and 2 respectively (by HPLC retention time, MS data and ^1H NMR spectrum).
However, in the presence of NH4OAc, almost 50% of the compounds were converted after 24 hours. Furthermore, it was observed that upon drying under vacuum, Degradants III-c and III-d were converted to Degradants III-a and III-b independent of the presence of NH4OAc. Because the molecular formula difference between Degradants III-c and III-a was one oxygen atom as measured by HR-MS, it was concluded that Degradants […] and III-d were a diasteromeric pair of 4-hydroperoxy transnorsertraline. The conversions from impurity 3 and Degradant III-d to Degradants III-a and III-b may be by a decomposition process of hydroperoxides.

[2] = Moisture content by coulometric Karl Fischer titration (KF); assay type: physicochemical
Protocol: (§1) Each salt was analyzed by coulometric titration using an EM Scientific Aquastar C3000 titrator to determine water content. […] Each salt was analyzed using a Perkin Elmer TGA 7 Thermal Gravimetric Analyzer (TGA). […] Moisture sorption isotherms for each salt were generated using the VTI SGA-100 Symmetric Vapor Sorption Analyzer. Samples were run as received without pre-analysis drying. Equilibrium criteria were the lesser of 0.01 wt % change in 5 minutes or 180 minutes at each relative humidity (RH) step. […] Analysis was repeated for each sample in consecutive analyses (sample was not removed from analyzer). Sample sizes ranged from 18 mg to 35 mg.

[3] = Thermal gravimetric analysis (TGA) weight loss; assay type: physicochemical; conditions: heated 25° C. to 325° C. at 10° C./min
Protocol: The sixteen salts of transnorsertraline of Example 6.14 were analyzed for moisture content and hygroscopicity. Each salt was analyzed by coulometric titration using an EM Scientific Aquastar C3000 titrator to determine water content. Sample size ranged from 18 mg to 134 mg. Each salt was analyzed using a Perkin Elmer TGA 7 Thermal Gravimetric Analyzer (TGA). […] Moisture sorption isotherms for each salt were generated using the VTI SGA-100 Symmetric Vapor Sorption Analyzer. Samples were run as received without pre-analysis drying. Equilibrium criteria were the lesser of 0.01 wt % change in 5 minutes or 180 minutes at each relative humidity (RH) step. Temperature was fixed at 25° C. and the relative humidity steps (25 to 95% to 25%) were in 5% increments. Analysis was repeated for each sample in consecutive analyses (sample was not removed from analyzer). Sample sizes ranged from 18 mg to 35 mg.

[4] = VTI moisture sorption isotherm (hygroscopicity); assay type: physicochemical; conditions: for VTI Adsorp. (% wt gain 25 to 95% RH) / VTI Desorp. (% wt loss 95 to 25% RH): 25° C.
Protocol: as §1

[5] = Solubility of transnorsertraline salts in de-ionized water (HPLC); conditions: for pH: saturated solution in de-ionized water
Protocol: For each salt, saturated solutions with excess solids in deionized water were prepared in 20 mL clear glass scintillation vials with screw caps. All samples were shaken at 300 rpm at ambient conditions for up to nine days until equilibrium was achieved. Solubility was determined using a HPLC method (Table 5).

[6] = Solubility of transnorsertraline salts in aqueous buffer systems (SGF, acetate buffer pH 4.5, SIF; HPLC); assay type: physicochemical
Protocol: Saturated solutions with excess solids were prepared in 20 mL clear glass scintillation vials. Simulated gastric fluid (pH 1.0, ˜0.1N HCl, 0.03M NaCl, no enzymes), simulated intestinal fluid (pH 6.8, 0.05M KH2PO4, ˜0.02N NaOH, no enzymes), and acetate buffer (pH 4.5, 0.02M sodium acetate, 0.03M acetic acid) were prepared in accordance with USP28 (USP28 Test Solutions p2855, Volumetric Solutions p2863). […] Solubility was determined using a HPLC method.

[7] = Polymorphic conversion of anhydrous transnorsertraline hydrochloride to hydrate in aqueous media, in-situ Raman monitoring; assay type: physicochemical; conditions: 37° C.
Protocol: The study of the conversion of anhydrous transnorsertraline hydrochloride to the hydrate form in aqueous media was investigated, using in-situ Raman monitoring.
Raman spectroscopy was performed using a Kaiser Optical Systems Inc. dispersive RamanRXN3 for on-line or in-situ reaction monitoring. The RamanRXN3 system uses an excitation wavelength of 785 nm, with an external cavity-stabilized, diode laser. All spectra were acquired using a ¼″ immersion probe with approximately 100 mW of laser power at the tip of the probe. Different exposure times and numbers of spectrum accumulations were used for the analysis of the two dry samples. An exposure time of 4 seconds with 2 accumulations was used for the monitoring of all form conversions experiments. Wavelength and laser wavelength calibration were performed using an internal neon standard, and diamond Raman shift standard, respectively. The intensity calibration was performed using a Kaiser Raman calibration accessory.
Regions 660-715 cm^−1 and 1430-1490 cm^−1 in particular show little overlapping of the peaks characteristic of each form. Experimental results confirmed that no peaks in the regions […] and 1430-1490 cm^−1 were likely to overlap with peaks of interest to follow the conversion between the two crystalline forms of transnorsertraline hydrochloride.
The conversion of anhydrous transnorsertraline hydrochloride to the monohydrate form was monitored in water. […] Based on the peak intensity ratio I(677 cm^−1)/I(695 cm^−1), an induction time of approximately 1.1 hour was seen before the beginning of the conversion. The end of the conversion was estimated at approximately 2 hours from the beginning of the slurry. […] XRPD analysis of the solids collected at the end of the Raman monitoring of the conversion (after approximately 2 h 10 min) was consistent with the hydrate form, with a small amount of anhydrous form detectable. […] Additionally, the Raman limit of detection of the anhydrous form in the mixture was not estimated.
The conversion of anhydrous transnorsertraline hydrochloride to the hydrate form in water, simulated gastric fluid (SGF) and simulated intestinal fluid (SIF) without enzymes, and 0.1N HCl was monitored at 37° C.
Overall, similar results were obtained in water and simulated gastric fluid, with the start of the form conversion detected at approximately 1.3 hours, with a slightly faster conversion in simulated gastric fluid compared to water. The complete conversion was estimated to occur within 3 to 4 hours in the two media. […] XPRD analysis of the solids collected at the end of each experiments were consistent with the hydrate form, with or without some anhydrous form present. The small amount of anhydrous form may be due to residual solids on the walls of the vessel at the time of the slurry.

[8] = repeated consecutive analysis (second line)
[9] = saturated solution in 0.05M Acetate Buffer (pH 4.5)
[10] = saturated solution in Simulated Gastric Fluid
[11] = saturated solution in Simulated Intestinal Fluid
[12] = first analysis, listed as L-malate lot 1
[13] = first analysis, listed as L-malate lot 2
[14] = first analysis, listed as L-malate lot 3
[15] = SIF without enzymes, small scale
[16] = first analysis, listed as Acetate lot 1
[17] = first analysis, listed as Acetate lot 2
[18] = first analysis, listed as Acetate lot 3
[19] = repeated consecutive analysis (second line), listed as Acetate lot 1
[20] = repeated consecutive analysis (second line), listed as Acetate lot 2
[21] = repeated consecutive analysis (second line), listed as Acetate lot 3

Row | Molecule | Initial KF (% H2O) [2] [% H2O] | TGA (% wt loss) [3] [% wt loss] | VTI Adsorp. (% wt gain 25 to 95% RH) ([4]; first analysis) [% wt gain] | VTI Desorp. (% wt loss 95 to 25% RH) ([4]; first analysis) [% wt loss] | VTI Adsorp. (% wt gain 25 to 95% RH) [4, 8] [% wt gain] | VTI Desorp. (% wt loss 95 to 25% RH) [4, 8] [% wt loss] | pH [5] | pH [6, 9] | pH [6, 10] | pH [6, 11] | Solubility in Freebase Equivalents mgA/mL ([6]; pH 1) | Solubility in Freebase Equivalents mgA/mL ([6]; pH 4.5) | Solubility in Freebase Equivalents mgA/mL ([6]; pH 6.8) [mgA/mL] | other results
1 | N[C@@H]1CCC(OO)(c2ccc(Cl)c(Cl)c2)c2ccccc21 (single isomer, unassigned) [Degradant-III-c, 4-hydroperoxy transnorsertraline] | – | – | – | – | – | – | – | – | – | – | – | – | – | compound converted ([1]; in the presence of NH4OAc, after 24 hours): ~50%; stability of freshly isolated fractions ([1]; without NH4OAc, a few days at room temperature): relatively stable
2 | Fumarate | 0.40 | 0.81 | 0.18 | 0.17 | 0.17 | 0.16 | 5.30 | 4.60 | 1.25 | 6.63 | – | – | – | Solubility in Freebase Equivalents mgA/mL ([5]; de-ionized water, ambient, shaken up to nine days until equilibrium): 0.52 mgA/mL; Solubility in Freebase Equivalents mgA/mL ([6]; 0.05M Acetate Buffer (pH 4.5), ambient, up to nine days): 0.69 mgA/mL; Solubility in Freebase Equivalents mgA/mL ([6]; Simulated Gastric Fluid (no enzymes), ambient, up to nine days): <0.01 mgA/mL; Solubility in Freebase Equivalents mgA/mL ([6]; Simulated Intestinal Fluid (pH 6.8, no enzymes), ambient, up to nine days): 0.30 mgA/mL
3 | Transnorsertraline Acetate | 0.03 | 0.53 | 0.07 | 0.08 | 0.08 | 0.09 | 6.31 | 4.79 | 1.26 | 6.63 | 0.07 mgA/mL | 3.12 mgA/mL | 0.25 | Initial KF (% H2O) ([2]; listed as Acetate lot 1): 0.03 % H2O; Initial KF (% H2O) ([2]; listed as Acetate lot 2): 0.07 % H2O; Initial KF (% H2O) ([2]; listed as Acetate lot 3): 0.05 % H2O; TGA (% wt loss) ([3]; listed as Acetate lot 1): 0.43 % wt loss; VTI Adsorp. (% wt gain 25 to 95% RH) [4, 16]: 0.07 % wt gain; VTI Desorp. (% wt loss 95 to 25% RH) [4, 16]: 0.08 % wt loss; VTI Adsorp. (% wt gain 25 to 95% RH) [4, 17]: 0.22 % wt gain; VTI Desorp. (% wt loss 95 to 25% RH) [4, 17]: 0.23 % wt loss; VTI Adsorp. (% wt gain 25 to 95% RH) [4, 18]: 0.33 % wt gain; VTI Desorp. (% wt loss 95 to 25% RH) [4, 18]: 0.38 % wt loss; VTI Adsorp. (% wt gain 25 to 95% RH) [4, 19]: 0.08 % wt gain; VTI Desorp. (% wt loss 95 to 25% RH) [4, 19]: 0.09 % wt loss; VTI Adsorp. (% wt gain 25 to 95% RH) [4, 20]: 0.23 % wt gain; VTI Desorp. (% wt loss 95 to 25% RH) [4, 20]: 0.23 % wt loss; VTI Adsorp. (% wt gain 25 to 95% RH) [4, 21]: 0.35 % wt gain; VTI Desorp. (% wt loss 95 to 25% RH) [4, 21]: 0.35 % wt loss

The next lines start with results.

Row | Initial KF (% H2O) [2] [% H2O] | TGA (% wt loss) [3] [% wt loss] | VTI Adsorp. (% wt gain 25 to 95% RH) ([4]; first analysis) [% wt gain] | VTI Desorp. (% wt loss 95 to 25% RH) ([4]; first analysis) [% wt loss] | VTI Adsorp. (% wt gain 25 to 95% RH) [4, 8] [% wt gain] | VTI Desorp. (% wt loss 95 to 25% RH) [4, 8] [% wt loss] | pH [5] | pH [6, 9] | pH [6, 10] | pH [6, 11] | Solubility in Freebase Equivalents mgA/mL ([6]; pH 1) | Solubility in Freebase Equivalents mgA/mL ([6]; pH 4.5) | Solubility in Freebase Equivalents mgA/mL ([6]; pH 6.8) [mgA/mL] | Molecule | other results
4 | 0.05 | 0.07 | 0.08 | 0.08 | 0.06 | 0.06 | 4.15 | 4.42 | 1.15 | 6.68 | 0.08^b mgA/mL | 1.59^b mgA/mL | 0.38 | Transnorsertraline L-Malate | Initial KF (% H2O) ([2]; listed as L-malate lot 1): 0.05 % H2O; Initial KF (% H2O) ([2]; listed as L-malate lot 2): 0.08 % H2O; Initial KF (% H2O) ([2]; listed as L-malate lot 3): 0.04 % H2O; TGA (% wt loss) ([3]; listed as L-malate lot 1): 0.08 % wt loss; VTI Adsorp. (% wt gain 25 to 95% RH) [4, 12]: 0.08 % wt gain; VTI Desorp. (% wt loss 95 to 25% RH) [4, 12]: 0.08 % wt loss; VTI Adsorp. (% wt gain 25 to 95% RH) [4, 13]: 0.06 % wt gain; VTI Desorp. (% wt loss 95 to 25% RH) [4, 13]: 0.07 % wt loss; VTI Adsorp. (% wt gain 25 to 95% RH) [4, 14]: 5.31 % wt gain; VTI Desorp. (% wt loss 95 to 25% RH) [4, 14]: 5.23 % wt loss; VTI Adsorp. (% wt gain 25 to 95% RH) ([4]; repeated consecutive analysis (second line), listed as L-malate lot 1): 0.06 % wt gain; VTI Adsorp. (% wt gain 25 to 95% RH) ([4]; repeated consecutive analysis (second line), listed as L-malate lot 2): 0.07 % wt gain; moisture adsorbed more than other L-malate lots ([4]; from 25 to 95% relative humidity): > 5%
5 | 0.02 | 0.00 | 0.01 | 0.02 | 0.01 | 0.02 | 5.32 | 4.58 | 1.28 | 6.75 | – | 2.15 mgA/mL | 0.24 | transnorsertraline hydrochloride [HCl] | VTI adsorption, weight gain ([4]; second lot, from 25 to 95% relative humidity): 0.01%; VTI desorption, weight loss ([4]; second lot, from 95% to 25% relative humidity): 0.01%; Solubility in Freebase Equivalents mgA/mL [6]: 0.13 mgA/mL; form conversion completed ([7]; 0.1N HCl): approximately 4 hours; induction time of form conversion ([7]; 0.1N HCl, larger scale): 2 to 2.3 h; form conversion completed ([7]; SGF without enzymes): 3 to 4 h; start of form conversion to hydrate ([7]; SGF without enzymes): approximately 1.3 hours; end of form conversion ([7]; SIF without enzymes, large scale): ~36 h; start of form conversion to hydrate ([7]; SIF without enzymes, larger scale): ~19 h; end of form conversion [7, 15]: approximately 12.5 hours; start of form conversion to hydrate [7, 15]: ~10 h; form conversion completed ([7]; water): 3 to 4 h; start of form conversion to hydrate ([7]; water): approximately 1.3 hours
